The target in test [1] is 5-hydroxytryptamine receptor 6 (Homo sapiens, UniProt P50406). It counts as cell membranes, HeLa, Membrane. Conditions: for Ki: read-out: Ki. On all read-outs here: in other assays of this panel Not Active means under 50% inhibition at 10 µM.
Test [2] is described as follows: DRUGMATRIX: GABAA, Flunitrazepam, Central radioligand binding (ligand: [3H] Flunitrazepam). The conditions noted are these: Not Active = under 50% inhibition at 10 µM. It counts as cell membranes, Rattus norvegicus, Wistar, Brain, Membrane.
The nature of test [3]: DRUGMATRIX: Phosphodiesterase PDE4 enzyme inhibition (substrate: [3H]cAMP + cAMP). Conditions: u-937; Not Active = under 50% inhibition at 10 µM.
Test [4] concerns the target Nitric oxide synthase 1 (Rattus norvegicus, UniProt P29476). The class given is tissue-based, Cerebellum. Further: in other assays of this panel Not Active means under 50% inhibition at 10 µM.
Test [5] concerns the target T1, B2 bradykinin receptor (Homo sapiens, UniProt P30411). Further: in other assays of this panel Not Active means under 50% inhibition at 10 µM.
T1 sequence (P30411 whole entry): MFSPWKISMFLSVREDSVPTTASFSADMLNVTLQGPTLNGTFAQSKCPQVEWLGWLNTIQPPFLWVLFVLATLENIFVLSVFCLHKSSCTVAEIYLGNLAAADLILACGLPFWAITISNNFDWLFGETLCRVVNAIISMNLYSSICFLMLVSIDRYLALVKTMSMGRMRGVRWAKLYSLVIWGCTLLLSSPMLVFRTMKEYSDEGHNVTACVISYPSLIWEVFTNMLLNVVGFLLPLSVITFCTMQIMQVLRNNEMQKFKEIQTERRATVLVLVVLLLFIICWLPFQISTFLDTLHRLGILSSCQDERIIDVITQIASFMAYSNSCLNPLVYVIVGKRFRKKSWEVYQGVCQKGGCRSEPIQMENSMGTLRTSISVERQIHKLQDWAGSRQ
It counts as cell membranes, Membrane. Conditions: chem-1.

Test [6] has as its target T2, C-X-C chemokine receptor type 1 (Homo sapiens, UniProt P25024). Further: in other assays of this panel Not Active means under 50% inhibition at 10 µM.
T2 sequence (P25024 whole entry): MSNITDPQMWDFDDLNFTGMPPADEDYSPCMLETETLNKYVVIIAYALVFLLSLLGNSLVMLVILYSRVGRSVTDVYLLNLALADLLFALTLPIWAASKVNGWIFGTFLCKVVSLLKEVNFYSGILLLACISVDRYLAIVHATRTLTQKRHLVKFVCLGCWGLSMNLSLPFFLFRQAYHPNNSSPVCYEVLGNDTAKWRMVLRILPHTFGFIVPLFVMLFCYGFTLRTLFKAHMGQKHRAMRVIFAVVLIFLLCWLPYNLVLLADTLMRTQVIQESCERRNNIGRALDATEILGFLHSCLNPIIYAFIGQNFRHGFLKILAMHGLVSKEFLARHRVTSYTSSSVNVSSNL

In test [7] the target is T3, Cathepsin G (Homo sapiens, UniProt P08311).
T3 sequence (P08311 whole entry): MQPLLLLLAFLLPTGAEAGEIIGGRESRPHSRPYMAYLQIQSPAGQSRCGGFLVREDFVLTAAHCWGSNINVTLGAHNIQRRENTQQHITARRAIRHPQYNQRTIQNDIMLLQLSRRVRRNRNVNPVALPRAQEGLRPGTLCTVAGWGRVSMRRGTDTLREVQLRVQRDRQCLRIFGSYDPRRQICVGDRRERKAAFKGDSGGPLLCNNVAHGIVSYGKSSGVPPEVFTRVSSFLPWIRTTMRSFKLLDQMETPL
The class given is tissue-based. Conditions: neutrophil.

Structures are written as SMILES.

Sequence of 5-hydroxytryptamine receptor 6 (P50406 whole entry): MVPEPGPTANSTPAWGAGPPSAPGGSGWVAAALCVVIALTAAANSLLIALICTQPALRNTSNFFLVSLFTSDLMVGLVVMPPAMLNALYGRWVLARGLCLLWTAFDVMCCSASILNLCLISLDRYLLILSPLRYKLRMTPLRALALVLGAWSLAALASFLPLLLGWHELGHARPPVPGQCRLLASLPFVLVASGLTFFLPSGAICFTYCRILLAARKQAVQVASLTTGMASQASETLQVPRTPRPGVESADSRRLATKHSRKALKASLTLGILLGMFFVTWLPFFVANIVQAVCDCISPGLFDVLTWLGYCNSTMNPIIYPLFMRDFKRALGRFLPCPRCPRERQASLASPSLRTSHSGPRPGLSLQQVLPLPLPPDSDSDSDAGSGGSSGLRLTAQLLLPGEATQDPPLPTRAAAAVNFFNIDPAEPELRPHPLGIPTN
Sequence of Nitric oxide synthase 1 (P29476 whole entry): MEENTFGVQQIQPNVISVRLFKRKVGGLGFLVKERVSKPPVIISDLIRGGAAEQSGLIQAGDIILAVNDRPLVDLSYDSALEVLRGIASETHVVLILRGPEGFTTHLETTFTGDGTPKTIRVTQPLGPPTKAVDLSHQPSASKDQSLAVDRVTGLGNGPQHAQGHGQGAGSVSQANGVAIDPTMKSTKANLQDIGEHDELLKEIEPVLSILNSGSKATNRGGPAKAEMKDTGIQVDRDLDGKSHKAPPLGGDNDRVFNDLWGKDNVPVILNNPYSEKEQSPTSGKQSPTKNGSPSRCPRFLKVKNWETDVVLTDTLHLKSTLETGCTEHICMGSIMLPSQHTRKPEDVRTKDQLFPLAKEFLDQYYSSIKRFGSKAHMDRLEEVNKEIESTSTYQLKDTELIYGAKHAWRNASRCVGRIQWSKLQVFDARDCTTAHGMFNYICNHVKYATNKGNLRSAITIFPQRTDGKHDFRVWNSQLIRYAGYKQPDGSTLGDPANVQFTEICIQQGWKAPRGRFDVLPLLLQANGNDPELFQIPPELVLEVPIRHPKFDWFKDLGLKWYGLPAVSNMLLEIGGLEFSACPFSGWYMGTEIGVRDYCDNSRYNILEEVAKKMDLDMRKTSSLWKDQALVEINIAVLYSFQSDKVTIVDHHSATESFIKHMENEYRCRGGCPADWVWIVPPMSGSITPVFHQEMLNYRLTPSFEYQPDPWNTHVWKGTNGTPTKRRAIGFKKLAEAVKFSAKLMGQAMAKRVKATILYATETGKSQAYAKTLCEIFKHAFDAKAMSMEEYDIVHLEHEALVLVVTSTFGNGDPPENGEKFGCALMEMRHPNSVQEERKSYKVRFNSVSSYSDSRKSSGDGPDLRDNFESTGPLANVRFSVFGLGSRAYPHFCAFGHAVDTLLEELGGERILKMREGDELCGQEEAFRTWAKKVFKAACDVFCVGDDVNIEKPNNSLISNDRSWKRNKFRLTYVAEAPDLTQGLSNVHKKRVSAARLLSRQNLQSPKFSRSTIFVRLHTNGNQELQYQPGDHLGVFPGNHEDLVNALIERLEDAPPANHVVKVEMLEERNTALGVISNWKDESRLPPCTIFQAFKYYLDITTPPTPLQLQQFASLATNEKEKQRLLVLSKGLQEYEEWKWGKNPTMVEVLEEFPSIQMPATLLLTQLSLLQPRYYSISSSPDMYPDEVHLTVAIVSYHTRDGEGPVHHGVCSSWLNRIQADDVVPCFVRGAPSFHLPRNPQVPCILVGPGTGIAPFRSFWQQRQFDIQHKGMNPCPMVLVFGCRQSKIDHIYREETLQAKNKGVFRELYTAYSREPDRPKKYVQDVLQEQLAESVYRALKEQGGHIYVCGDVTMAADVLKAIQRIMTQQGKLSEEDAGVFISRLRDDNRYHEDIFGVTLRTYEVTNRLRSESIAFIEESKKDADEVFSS

In general, IC50 refers to the concentration needed to halve the response being measured. As usually defined, the Ki is a measure of affinity in units of concentration, obtained from inhibition or displacement. Consider `Cc1c(C)c2c(c(C)c1O)CCC(C)(CN1CCN(c3cc(N4CCCC4)nc(N4CCCC4)n3)CC1)O2` (stereo not drawn), for which the IC50 result in test [1] (hela), in test [2], in test [3], in test [4], in test [5] and in test [6] was “Not Active” each time. Also, the IC50 result in test [7] is recorded as “Not Active”. For the same compound, the Ki entry in test [2] and in test [3] was “Not Active” throughout.

For the compound `COc1ccc(CCN(C)CCCC(C#N)(c2ccc(OC)c(OC)c2)C(C)C)cc1OC` (stereo not drawn), the concentration for half-maximal inhibition (IC50) result in test [1] (hela), in test [2], in test [3], in test [4], in test [5] and in test [6] was “Not Active” each time. The IC50 result in test [7] is “Not Active”. In addition, the Ki entry in test [2] and in test [3] was “Not Active” throughout.

Consider `CC(C)Cc1ccc([C@@H](C)C(=O)O)cc1` [(R)-IBUPROPHEN], for which the IC50 result in test [1] (hela), in test [2], in test [3], in test [4], in test [5] and in test [6] was “Not Active” each time. The IC50 result in test [7] is listed as “Not Active”. Besides, the Ki entry in test [2] and in test [3] was “Not Active” throughout.

`CN(C)CCOC(c1ccccc1)c1ccccc1` [DIPHENHYDRAMINE]: the IC50 entry in test [1] (hela), in test [4], in test [5], in test [6] and in test [7] was “Not Active” in each case.

As to `Clc1ccc(COC(Cn2ccnc2)c2ccc(Cl)cc2Cl)cc1` (stereo not drawn) [ECONAZOLE], the IC50 in test [1] (read-out: IC50) was 10900 nM; in test [4], “Not Active”; in test [5] it was “Not Active”; in test [6], “Not Active”; in test [7], “Not Active”. In test [1], the Ki turned out to be 5060 nM.

In the case of `CCN(CC)CCOc1ccc(/C(=C(/Cl)c2ccccc2)c2ccccc2)cc1` [ENCLOMIPHENE], the IC50 in test [1] (read-out: IC50) was 1520 nM; in test [4], “Not Active”; in test [5], “Not Active”; in test [6] it was “Not Active”; in test [7], “Not Active”. Moreover, in test [1], the Ki came to 707 nM.

For the compound `Fc1ccc(C(c2ccc(F)cc2)N2CCN(C/C=C/c3ccccc3)CC2)cc1` [FLUNARIZINE], the IC50 result in test [1] (hela), in test [4], in test [5], in test [6] and in test [7] was “Not Active” in each case.

Take `CNCCC(Oc1ccc(C(F)(F)F)cc1)c1ccccc1` (stereo not drawn) [FLUOXETINE]: the IC50 entry in test [4], in test [5], in test [6] and in test [7] was “Not Active” throughout.

Regarding `Cc1ccc(NC(=O)c2ccc(CN3CCN(C)CC3)cc2)cc1Nc1nccc(-c2cccnc2)n1` [IMATINIB], the IC50 entry in test [1] (hela), in test [4], in test [5], in test [6] and in test [7] was “Not Active” each time.

As for `CC(C)Oc1ccc2c(=O)c(-c3ccccc3)coc2c1` [IPRIFLAVONE], the IC50 entry in test [1] (hela), in test [2], in test [3], in test [4], in test [5] and in test [6] was “Not Active” in each case. Besides, the half-maximal inhibitory concentration (IC50) result in test [7] was “Not Active”. Moreover, the Ki result in test [2] and in test [3] was “Not Active” in each case.

Consider `CC(C)NCC(O)c1ccc(O)c(O)c1` (stereo not drawn) [ISOPROTERENOL], for which the IC50 result in test [1] (hela), in test [2], in test [3], in test [4], in test [5] and in test [6] was “Not Active” throughout. For the same compound, the half-inhibitory concentration (IC50) result in test [7] is “Not Active”. For the same compound, the Ki entry in test [2] and in test [3] was “Not Active” each time.

`CNC1(c2ccccc2Cl)CCCCC1=O` (stereo not drawn) [KETAMINE]: the IC50 entry in test [1] (hela), in test [2], in test [3], in test [4], in test [5] and in test [6] was “Not Active” each time. Also, the IC50 entry in test [7] is “Not Active”. Besides, the Ki entry in test [2] and in test [3] was “Not Active” throughout.

Turning to `N#Cc1ccc(C(c2ccc(C#N)cc2)n2cncn2)cc1` [LETROZOLE], the IC50 entry in test [1] (hela), in test [2], in test [3], in test [4], in test [5] and in test [6] was “Not Active” throughout. In test [7], the IC50 entry was “Not Active”. The Ki result in test [2] and in test [3] was “Not Active” in each case.

As to `CCN1CCC[C@H]1CNC(=O)c1cc(S(N)(=O)=O)ccc1OC` [LEVOSULPIRIDE], the IC50 entry in test [1] (hela), in test [2], in test [3], in test [4], in test [5] and in test [6] was “Not Active” each time. Further, the IC50 entry in test [7] is given as “Not Active”. Besides, the Ki result in test [2] and in test [3] was “Not Active” in each case.

Turning to `CCN(CC)CC(=O)Nc1c(C)cccc1C` [LIDOCAINE], the IC50 result in test [1] (hela), in test [2], in test [3], in test [4], in test [5] and in test [6] was “Not Active” throughout. In test [7], the IC50 result is listed as “Not Active”. Moreover, the Ki entry in test [2] and in test [3] was “Not Active” throughout.

`O=C1Nc2ccc(Cl)cc2C(c2ccccc2Cl)=NC1O` (stereo not drawn) [LORAZEPAM]: the IC50 result in test [1] (hela) was “Not Active”; in test [2] (read-out: IC50), 6.35 nM; in test [3], “Not Active”; in test [4], “Not Active”; in test [5], “Not Active”; in test [6] it was “Not Active”. Moreover, the IC50 result in test [7] was “Not Active”. The Ki is 5.18 nM in test [2] (read-out: Ki) and “Not Active” in test [3].

With `CO[C@@H]1[C@@H](OC)[C@H](C)[C@@](O)(CC(=O)O)O[C@H]1[C@H](C)[C@H]1O[C@@]2(CC[C@@](C)([C@H]3CC[C@@](C)([C@@H]4O[C@@H]([C@H]5O[C@](C)(O)[C@H](C)C[C@@H]5C)C[C@@H]4O[C@@H]4C[C@H](OC)[C@@H](OC)[C@H](C)O4)O3)O2)C[C@H](O)[C@H]1C` [MADURAMICIN ACID], the IC50 in test [1] (read-out: IC50) was 1.7 nM; in test [2], “Not Active”; in test [3], “Not Active”; in test [4] it was “Not Active”; in test [5] it was “Not Active”; in test [6], “Not Active”. Also, in test [7], the IC50 result is listed as “Not Active”. The Ki in test [1] is 0.789 nM; in test [2] it was “Not Active”; in test [3], “Not Active”.

Consider `COc1c2occc2cc2ccc(=O)oc12` [METHOXSALEN], for which the IC50 entry in test [1] (hela), in test [2], in test [3], in test [4], in test [5] and in test [6] was “Not Active” each time. The IC50 entry in test [7] is listed as “Not Active”. Also, the Ki entry in test [2] and in test [3] was “Not Active” in each case.

Take `C[C@H]1C[C@@H]2[C@H]([C@@H](O)C[C@@]3(C)[C@H]2CC[C@]3(O)C(=O)CO)[C@@]2(C)C=CC(=O)C=C12` [METHYLPREDNISOLONE]: the IC50 result in test [1] (hela), in test [2], in test [3], in test [4], in test [5] and in test [6] was “Not Active” each time. Also, the IC50 entry in test [7] is reported as “Not Active”. The Ki entry in test [2] and in test [3] was “Not Active” each time.

Take `Cc1cccc(C)c1OCC(C)N` (stereo not drawn) [MEXILETINE]: the IC50 result in test [1] (hela), in test [2], in test [3], in test [4], in test [5] and in test [6] was “Not Active” in each case. Also, in test [7], the IC50 entry is listed as “Not Active”. Moreover, the Ki entry in test [2] and in test [3] was “Not Active” each time.

As for `CN[C@H]1CC[C@@H](c2ccc(Cl)c(Cl)c2)c2ccccc21` [SERTRALINE], the IC50 result in test [1] (hela), in test [4], in test [5], in test [6] and in test [7] was “Not Active” in each case.

The values are drawn from ChEMBL document CHEMBL1909046, “DrugMatrix in vitro pharmacology data”.
